Measured values from ChEMBL document CHEMBL1146418, “A new flavone C-glycoside and antiplatelet and vasorelaxing flavones from Gentiana arisanensis” (J Nat Prod, 1997).

Assays:
Platelet [1] = experiment: Inhibition of thrombin-induced platelet aggregation in rabbit plasma at 50 uM preincubated 3 mins before addition of thrombin by turbidimetric method; type: functional, Oryctolagus cuniculus; design: scale not given: the % may be the effect or the level left
Platelet [2] = experiment: Inhibition of arachidonic acid-induced platelet aggregation in rabbit plasma at 50 uM preincubated 3 mins before addition of thrombin by turbidimetric method; type: functional, Oryctolagus cuniculus; design: scale not given: the % may be the effect or the level left
Platelet [3] = experiment: Inhibition of collagen-induced platelet aggregation in rabbit plasma at 50 uM preincubated 3 mins before addition of thrombin by turbidimetric method; type: functional, Oryctolagus cuniculus; design: scale not given: the % may be the effect or the level left
Platelet [4] = experiment: Inhibition of platelet activating factor-induced platelet aggregation in rabbit plasma at 50 uM preincubated 3 mins before addition of thrombin by turbidimetric method; type: functional, Oryctolagus cuniculus; design: scale not given: the % may be the effect or the level left
Platelet [5] = experiment: Inhibition of thrombin-induced platelet aggregation in rabbit plasma at 300 uM preincubated 3 mins before addition of thrombin by turbidimetric method; type: functional, Oryctolagus cuniculus; design: scale not given: the % may be the effect or the level left
Platelet [6] = experiment: Inhibition of arachidonic acid-induced platelet aggregation in rabbit plasma at 300 uM preincubated 3 mins before addition of thrombin by turbidimetric method; type: functional, Oryctolagus cuniculus; design: scale not given: the % may be the effect or the level left
Platelet [7] = experiment: Inhibition of collagen-induced platelet aggregation in rabbit plasma at 300 uM preincubated 3 mins before addition of thrombin by turbidimetric method; type: functional, Oryctolagus cuniculus; design: scale not given: the % may be the effect or the level left
Platelet [8] = experiment: Inhibition of platelet activating factor-induced platelet aggregation in rabbit plasma at 300 uM preincubated 3 mins before addition of thrombin by turbidimetric method; type: functional, Oryctolagus cuniculus; design: scale not given: the % may be the effect or the level left
Platelet [9] = experiment: Inhibition of arachidonic acid-induced platelet aggregation in rabbit plasma at 100 uM preincubated 3 mins before addition of thrombin by turbidimetric method; type: functional, Oryctolagus cuniculus; design: scale not given: the % may be the effect or the level left
Platelet [10] = experiment: Inhibition of collagen-induced platelet aggregation in rabbit plasma at 100 uM preincubated 3 mins before addition of thrombin by turbidimetric method; type: functional, Oryctolagus cuniculus; design: scale not given: the % may be the effect or the level left
Aorta [11] = experiment: Inhibition of Ca2+-induced Wistar rat thoracic aorta contraction at 150 uM in high K+ medium pretreated 15 mins before addition of Ca2+ and K+ relative to control; type: functional; design: scale not given: the % may be the effect or the level left
Aorta [12] = experiment: Inhibition of noradrenaline-induced Wistar rat thoracic aorta phasic contraction in high K+ medium at 150 uM pretreated 15 mins before addition of Ca2+ and K+ relative to control; type: functional; design: scale not given: the % may be the effect or the level left
Aorta [13] = experiment: Inhibition of noradrenaline-induced Wistar rat thoracic aorta tonic contraction in high K+ medium at 150 uM pretreated 15 mins before addition of Ca2+ and K+ relative to control; type: functional; design: scale not given: the % may be the effect or the level left
Platelet [14] = experiment: Inhibition of arachidonic acid-induced platelet aggregation in rabbit plasma at 150 uM preincubated 3 mins before addition of thrombin by turbidimetric method; type: functional, Oryctolagus cuniculus; design: scale not given: the % may be the effect or the level left
Platelet [15] = experiment: Inhibition of arachidonic acid-induced platelet aggregation in rabbit plasma at 60 uM preincubated 3 mins before addition of thrombin by turbidimetric method; type: functional, Oryctolagus cuniculus; design: scale not given: the % may be the effect or the level left
Platelet [16] = experiment: Inhibition of arachidonic acid-induced platelet aggregation in rabbit plasma at 30 uM preincubated 3 mins before addition of thrombin by turbidimetric method; type: functional, Oryctolagus cuniculus; design: scale not given: the % may be the effect or the level left
Platelet [17] = experiment: Inhibition of arachidonic acid-induced platelet aggregation in rabbit plasma at 15 uM preincubated 3 mins before addition of thrombin by turbidimetric method; type: functional, Oryctolagus cuniculus; design: scale not given: the % may be the effect or the level left
Platelet [18] = experiment: Inhibition of arachidonic acid-induced platelet aggregation in rabbit plasma preincubated 3 mins before addition of thrombin by turbidimetric method; details: Oryctolagus cuniculus
Aorta [19] = experiment: Inhibition of Ca2+-induced Wistar rat thoracic aorta contraction at 300 uM in high K+ medium pretreated 15 mins before addition of Ca2+ and K+ relative to control; type: functional; design: scale not given: the % may be the effect or the level left
Aorta [20] = experiment: Inhibition of Ca2+-induced Wistar rat thoracic aorta contraction at 90 uM in high K+ medium pretreated 15 mins before addition of Ca2+ and K+ relative to control; type: functional; design: scale not given: the % may be the effect or the level left
Aorta [21] = experiment: Inhibition of Ca2+-induced Wistar rat thoracic aorta contraction at 30 uM in high K+ medium pretreated 15 mins before addition of Ca2+ and K+ relative to control; type: functional; design: scale not given: the % may be the effect or the level left
Aorta [22] = experiment: Inhibition of Ca2+-induced Wistar rat thoracic aorta contraction in high K+ medium pretreated 15 mins before addition of Ca2+ and K+
Aorta [23] = experiment: Inhibition of noradrenaline-induced Wistar rat thoracic aorta phasic contraction in high K+ medium at 300 uM pretreated 15 mins before addition of Ca2+ and K+ relative to control; type: functional; design: scale not given: the % may be the effect or the level left
Aorta [24] = experiment: Inhibition of noradrenaline-induced Wistar rat thoracic aorta phasic contraction in high K+ medium at 90 uM pretreated 15 mins before addition of Ca2+ and K+ relative to control; type: functional; design: scale not given: the % may be the effect or the level left
Aorta [25] = experiment: Inhibition of noradrenaline-induced Wistar rat thoracic aorta phasic contraction in high K+ medium at 30 uM pretreated 15 mins before addition of Ca2+ and K+ relative to control; type: functional; design: scale not given: the % may be the effect or the level left
Aorta [26] = experiment: Inhibition of noradrenaline-induced Wistar rat thoracic aorta phasic contraction in high K+ medium at 9 uM pretreated 15 mins before addition of Ca2+ and K+ relative to control; type: functional; design: scale not given: the % may be the effect or the level left
Aorta [27] = experiment: Inhibition of noradrenaline-induced Wistar rat thoracic aorta tonic contraction in high K+ medium at 300 uM pretreated 15 mins before addition of Ca2+ and K+ relative to control; type: functional; design: scale not given: the % may be the effect or the level left
Aorta [28] = experiment: Inhibition of noradrenaline-induced Wistar rat thoracic aorta tonic contraction in high K+ medium at 90 uM pretreated 15 mins before addition of Ca2+ and K+ relative to control; type: functional; design: scale not given: the % may be the effect or the level left
Aorta [29] = experiment: Inhibition of noradrenaline-induced Wistar rat thoracic aorta tonic contraction in high K+ medium at 30 uM pretreated 15 mins before addition of Ca2+ and K+ relative to control; type: functional; design: scale not given: the % may be the effect or the level left
Aorta [30] = experiment: Inhibition of noradrenaline-induced Wistar rat thoracic aorta tonic contraction in high K+ medium at 9 uM pretreated 15 mins before addition of Ca2+ and K+ relative to control; type: functional; design: scale not given: the % may be the effect or the level left
Aorta [31] = experiment: Inhibition of noradrenaline-induced Wistar rat thoracic aorta tonic contraction in high K+ medium pretreated 15 mins before addition of Ca2+ and K+ relative to control
Aorta [32] = experiment: Inhibition of noradrenaline-induced Wistar rat thoracic aorta phasic contraction in high K+ medium pretreated 15 mins before addition of Ca2+ and K+ relative to control

CC(=O)Oc1ccccc1C(=O)O [ASPIRIN]
Activity (Platelet [1]): 91.9% | Activity (Platelet [2]): 0% | Activity (Platelet [3]): 85.4% | Activity (Platelet [4]): 90.5%

O=c1cc(-c2ccc(O)cc2)oc2cc(O)c([C@@H]3O[C@H](CO[C@@H]4O[C@H](CO)[C@@H](O)[C@H](O)[C@H]4O)[C@@H](O)[C@H](O)[C@H]3O)c(O)c12
Activity (Platelet [5]): 87.4% | Activity (Platelet [6]): 84.9% | Activity (Platelet [7]): 85.6% | Activity (Platelet [8]): 84.6%

CC(=O)OC[C@H]1O[C@@H](c2c(OC(C)=O)cc3oc(-c4ccc(OC(C)=O)c(OC(C)=O)c4)cc(=O)c3c2OC(C)=O)[C@H](OC(C)=O)[C@@H](OC(C)=O)[C@@H]1OC(C)=O [ISOORIENTIN PERACETATE]
Activity (Platelet [5]): 79% | Activity (Platelet [6]): 72.4% | Activity (Platelet [7]): 68.6% | Activity (Platelet [8]): 74.7%

CC(=O)OC[C@H]1O[C@@H](OC[C@H]2O[C@@H](c3c(OC(C)=O)cc4oc(-c5ccc(OC(C)=O)c(OC(C)=O)c5)cc(=O)c4c3OC(C)=O)[C@H](OC(C)=O)[C@@H](OC(C)=O)[C@@H]2OC(C)=O)[C@H](OC(C)=O)[C@@H](OC(C)=O)[C@@H]1OC(C)=O
Activity (Platelet [9]): 79.9% | Activity (Platelet [10]): 80.5%

O=c1cc(-c2ccc(O)c(O)c2)oc2cc(O)c([C@@H]3O[C@H](CO)[C@@H](O)[C@H](O)[C@H]3O)c(O)c12 [ISOORIENTIN]
Activity (Platelet [5]): 85.5% | Activity (Platelet [6]): 66.9% | Activity (Platelet [7]): 60.8% | Activity (Platelet [8]): 77.1% | Activity (Aorta [11]): 106% | Activity (Aorta [12]): 91.7% | Activity (Aorta [13]): 86.6%

O=c1cc(-c2ccc(O)cc2)oc2cc(O)c([C@@H]3O[C@H](CO)[C@@H](O)[C@H](O)[C@H]3O)c(O)c12 [ISOVITEXIN]
Activity (Platelet [5]): 36.5% | Activity (Platelet [6]): 85.1% | Activity (Platelet [7]): 84.7% | Activity (Platelet [8]): 83.9%

O=c1cc(-c2ccc(O)c(O)c2)oc2cc(O[C@@H]3O[C@H](CO)[C@@H](O)[C@H](O)[C@H]3O)cc(O)c12 [GALUTEOLIN]
Activity (Platelet [5]): 87% | Activity (Platelet [6]): 80.2% | Activity (Platelet [7]): 80.5% | Activity (Platelet [8]): 71.9% | Activity (Aorta [11]): 93.4% | Activity (Aorta [12]): 84.5% | Activity (Aorta [13]): 88.2%

O=c1cc(-c2ccc(O)c(O)c2)oc2cc(O)c([C@@H]3O[C@H](CO[C@@H]4O[C@H](CO)[C@@H](O)[C@H](O)[C@H]4O)[C@@H](O)[C@H](O)[C@H]3O)c(O)c12
Activity (Platelet [5]): 85.7% | Activity (Platelet [6]): 83.3% | Activity (Platelet [7]): 85.4% | Activity (Platelet [8]): 83.5%

O=c1cc(-c2ccc(O)c(O)c2)oc2cc(O)cc(O)c12 [LUTEOLIN]
Activity (Platelet [5]): 34.7% | Activity (Platelet [6]): 0% | Activity (Platelet [14]): 0% | Activity (Platelet [15]): 20.5% | Activity (Platelet [16]): 53% | Activity (Platelet [17]): 79.2% | Activity (Platelet [7]): 2.8% | Activity (Platelet [8]): 53% | IC50 (Platelet [18]): 43.5 µM | Activity (Aorta [19]): 28.6% | Activity (Aorta [20]): 49.9% | Activity (Aorta [21]): 69.5% | IC50 (Aorta [22]): 156 µM | Activity (Aorta [23]): 14.9% | Activity (Aorta [24]): 29.3% | Activity (Aorta [25]): 64.7% | Activity (Aorta [26]): 92.8% | Activity (Aorta [27]): 22.9% | Activity (Aorta [28]): 32.6% | Activity (Aorta [29]): 52.3% | Activity (Aorta [30]): 99.2% | IC50 (Aorta [31]): 72 µM | IC50 (Aorta [32]): 68 µM
